From patent US20240374600A1, “METHODS AND COMPOSITIONS FOR TREATING CANCER” (Onconova Therapeutics, Inc., priority 2021, published 2024)
“Also recorded” adds a separate entry of the source.

Legend:
ARK 5/NUAK 1 = target: T1, ARK 5/NUAK 1 (Homo sapiens, UniProt O60285); experiment: In vitro multi-kinase activity, IC50; assay type: biochemical
T1 sequence (O60285 1-661): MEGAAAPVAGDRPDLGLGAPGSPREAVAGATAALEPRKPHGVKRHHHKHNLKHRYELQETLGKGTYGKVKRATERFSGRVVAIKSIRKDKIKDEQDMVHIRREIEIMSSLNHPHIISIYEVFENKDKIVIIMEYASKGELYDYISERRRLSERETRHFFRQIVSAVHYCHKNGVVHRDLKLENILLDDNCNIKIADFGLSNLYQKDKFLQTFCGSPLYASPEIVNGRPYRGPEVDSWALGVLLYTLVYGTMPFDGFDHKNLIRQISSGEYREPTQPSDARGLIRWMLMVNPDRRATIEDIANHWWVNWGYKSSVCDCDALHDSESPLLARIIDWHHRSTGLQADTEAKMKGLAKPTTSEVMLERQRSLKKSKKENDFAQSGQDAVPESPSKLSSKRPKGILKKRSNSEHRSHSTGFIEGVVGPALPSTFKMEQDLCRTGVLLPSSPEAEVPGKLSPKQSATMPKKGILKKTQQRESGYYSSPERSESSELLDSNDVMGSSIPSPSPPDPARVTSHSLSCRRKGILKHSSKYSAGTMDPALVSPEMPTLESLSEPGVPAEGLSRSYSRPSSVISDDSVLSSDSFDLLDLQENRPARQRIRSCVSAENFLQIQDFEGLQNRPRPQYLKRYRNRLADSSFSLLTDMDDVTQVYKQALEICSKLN
Text: (§1) The study evaluates the IC50 values (in nM) of Compound 1 in comparison to FDA approved CDK 4/6 inhibitors Comparator 1, Comparator 2 and Comparator 3, which represent treatment advances for HR+ HER^2-metastatic breast cancer. IC50 value is a quantitative measure indicating the concentration needed to inhibit the listed kinase by 50%.

CDK1/cyclin B = CDK1/cyclin B (Homo sapiens, UniProt P06493); experiment: In vitro multi-kinase activity, IC50; assay type: biochemical
Text: as §1

CDK16/cyclin Y = CDK16/cyclin Y (Homo sapiens, UniProt Q00536); experiment: In vitro multi-kinase activity, IC50; assay type: biochemical
Text: as §1

CDK17/cyclin Y = CDK17/cyclin Y (Homo sapiens, UniProt Q00537); experiment: In vitro multi-kinase activity, IC50; assay type: biochemical
Text: as §1

CDK2/cyclin E = CDK2/cyclin E (Homo sapiens, UniProt P24941); experiment: In vitro multi-kinase activity, IC50; assay type: biochemical
Text: as §1

CDK4/cyclin D1 = CDK4/cyclin D1 (Homo sapiens, UniProt P11802); experiment: In vitro multi-kinase activity, IC50; assay type: biochemical
Text: as §1

CDK6/cyclin D1 = CDK6/cyclin D1 (Homo sapiens, UniProt Q00534); experiment: In vitro multi-kinase activity, IC50; assay type: biochemical
Text: as §1

CDK7/cyclin H = CDK7/cyclin H (Homo sapiens, UniProt P50613); experiment: In vitro multi-kinase activity, IC50; assay type: biochemical
Text: as §1

CDK9/cyclinT1 = CDK9/cyclinT1 (Homo sapiens, UniProt P50750); experiment: In vitro multi-kinase activity, IC50; assay type: biochemical
Text: as §1

CSF1R = CSF1R (Homo sapiens, UniProt P07333); experiment: In vitro multi-kinase activity, IC50; assay type: biochemical
Text: as §1

KIT = KIT (Homo sapiens, UniProt P10721); experiment: In vitro multi-kinase activity, IC50; assay type: biochemical
Text: as §1

[1] = Neutropenia in preclinical models (FIG. 2); assay type: in vivo; conditions: in comparison to Comparator 1
[2] = Phase 1 dose-escalation study in patients with advanced cancer; assay type: in vivo, human
Protocol: The study is a phase 1 dose-escalation study of 8-cyclopentyl-2-((4-(4-methylpiperazin-1-yl)phenyl)amino)-7-oxo-7,8-dihydropyrido[2,3-d]pyrimidine-6-carbonitrile (Compound 1) in patients with advanced cancer. Patients are dosed daily in 28-day cycles with Compound 1 starting at 40 mg daily with dosages escalating 40 mg/day increments for each new cohort or only on days 1-21 of 28-day cycles. […] Adverse events reported are Grade 1 or 2 in severity and are predominantly gastrointestinal (GI) disorders.

kinases = experiment: KinMap kinase inhibition profile (FIG. 1); conditions: compared to a kinase inhibitor that is not compound 1

CDK4/cyclin D1, sequence (P11802 whole entry): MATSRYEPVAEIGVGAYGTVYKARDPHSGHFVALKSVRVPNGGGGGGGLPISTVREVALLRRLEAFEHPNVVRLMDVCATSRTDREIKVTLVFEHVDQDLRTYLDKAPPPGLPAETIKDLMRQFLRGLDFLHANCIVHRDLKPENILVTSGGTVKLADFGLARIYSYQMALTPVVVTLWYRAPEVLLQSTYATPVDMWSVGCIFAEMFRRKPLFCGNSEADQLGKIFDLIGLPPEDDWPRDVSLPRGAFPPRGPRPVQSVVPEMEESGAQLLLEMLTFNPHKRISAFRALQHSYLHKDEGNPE
CDK4/cyclin D1, sequence (P24385 whole entry partner): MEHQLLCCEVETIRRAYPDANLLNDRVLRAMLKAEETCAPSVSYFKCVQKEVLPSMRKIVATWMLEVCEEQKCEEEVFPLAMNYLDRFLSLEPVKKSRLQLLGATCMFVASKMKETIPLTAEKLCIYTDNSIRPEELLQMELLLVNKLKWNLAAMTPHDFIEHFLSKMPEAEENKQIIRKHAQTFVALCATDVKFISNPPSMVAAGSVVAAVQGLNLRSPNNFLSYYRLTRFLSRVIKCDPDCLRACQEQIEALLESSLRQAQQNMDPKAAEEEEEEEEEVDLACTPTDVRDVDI
CDK17/cyclin Y, sequence (Q00537 whole entry): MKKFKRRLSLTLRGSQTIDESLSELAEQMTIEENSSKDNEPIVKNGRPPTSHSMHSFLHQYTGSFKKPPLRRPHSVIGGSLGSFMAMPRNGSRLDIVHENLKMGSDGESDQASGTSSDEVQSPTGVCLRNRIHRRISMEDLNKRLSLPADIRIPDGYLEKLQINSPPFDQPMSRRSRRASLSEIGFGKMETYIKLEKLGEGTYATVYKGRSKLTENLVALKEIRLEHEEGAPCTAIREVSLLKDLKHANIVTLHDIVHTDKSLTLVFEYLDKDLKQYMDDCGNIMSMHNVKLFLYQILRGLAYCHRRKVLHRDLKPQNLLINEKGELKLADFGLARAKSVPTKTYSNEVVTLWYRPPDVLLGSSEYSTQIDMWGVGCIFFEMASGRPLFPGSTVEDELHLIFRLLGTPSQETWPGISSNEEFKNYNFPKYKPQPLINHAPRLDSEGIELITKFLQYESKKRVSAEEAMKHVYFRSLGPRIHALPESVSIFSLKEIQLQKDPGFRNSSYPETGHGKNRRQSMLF
CDK17/cyclin Y, sequence (Q8ND76 whole entry partner): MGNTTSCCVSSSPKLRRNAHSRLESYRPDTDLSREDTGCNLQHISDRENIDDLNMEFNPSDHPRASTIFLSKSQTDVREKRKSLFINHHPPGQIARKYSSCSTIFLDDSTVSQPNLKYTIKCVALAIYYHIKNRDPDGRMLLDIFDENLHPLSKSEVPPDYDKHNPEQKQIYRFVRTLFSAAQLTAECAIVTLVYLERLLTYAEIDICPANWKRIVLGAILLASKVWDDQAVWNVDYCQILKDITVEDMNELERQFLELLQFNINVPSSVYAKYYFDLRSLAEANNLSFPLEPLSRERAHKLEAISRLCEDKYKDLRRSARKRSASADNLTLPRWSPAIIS
CDK7/cyclin H, sequence (P50613 whole entry): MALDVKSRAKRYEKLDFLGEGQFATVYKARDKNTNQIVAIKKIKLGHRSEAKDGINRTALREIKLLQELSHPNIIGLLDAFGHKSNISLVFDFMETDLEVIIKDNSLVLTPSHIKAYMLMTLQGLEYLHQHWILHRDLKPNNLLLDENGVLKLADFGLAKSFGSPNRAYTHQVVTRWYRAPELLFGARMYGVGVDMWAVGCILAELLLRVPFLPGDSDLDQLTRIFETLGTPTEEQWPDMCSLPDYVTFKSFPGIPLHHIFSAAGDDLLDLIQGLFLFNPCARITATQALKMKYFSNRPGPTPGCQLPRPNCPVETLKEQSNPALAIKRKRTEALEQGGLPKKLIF
CDK7/cyclin H, sequence (P51946 whole entry partner): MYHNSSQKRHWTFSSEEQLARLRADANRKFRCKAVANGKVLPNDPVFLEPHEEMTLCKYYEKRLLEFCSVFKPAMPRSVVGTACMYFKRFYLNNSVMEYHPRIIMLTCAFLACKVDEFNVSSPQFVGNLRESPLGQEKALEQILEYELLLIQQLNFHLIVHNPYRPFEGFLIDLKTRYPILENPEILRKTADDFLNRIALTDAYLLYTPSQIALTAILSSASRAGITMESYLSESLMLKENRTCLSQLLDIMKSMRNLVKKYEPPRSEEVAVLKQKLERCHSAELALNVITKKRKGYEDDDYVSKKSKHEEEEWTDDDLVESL
CSF1R, sequence (P07333 20-972): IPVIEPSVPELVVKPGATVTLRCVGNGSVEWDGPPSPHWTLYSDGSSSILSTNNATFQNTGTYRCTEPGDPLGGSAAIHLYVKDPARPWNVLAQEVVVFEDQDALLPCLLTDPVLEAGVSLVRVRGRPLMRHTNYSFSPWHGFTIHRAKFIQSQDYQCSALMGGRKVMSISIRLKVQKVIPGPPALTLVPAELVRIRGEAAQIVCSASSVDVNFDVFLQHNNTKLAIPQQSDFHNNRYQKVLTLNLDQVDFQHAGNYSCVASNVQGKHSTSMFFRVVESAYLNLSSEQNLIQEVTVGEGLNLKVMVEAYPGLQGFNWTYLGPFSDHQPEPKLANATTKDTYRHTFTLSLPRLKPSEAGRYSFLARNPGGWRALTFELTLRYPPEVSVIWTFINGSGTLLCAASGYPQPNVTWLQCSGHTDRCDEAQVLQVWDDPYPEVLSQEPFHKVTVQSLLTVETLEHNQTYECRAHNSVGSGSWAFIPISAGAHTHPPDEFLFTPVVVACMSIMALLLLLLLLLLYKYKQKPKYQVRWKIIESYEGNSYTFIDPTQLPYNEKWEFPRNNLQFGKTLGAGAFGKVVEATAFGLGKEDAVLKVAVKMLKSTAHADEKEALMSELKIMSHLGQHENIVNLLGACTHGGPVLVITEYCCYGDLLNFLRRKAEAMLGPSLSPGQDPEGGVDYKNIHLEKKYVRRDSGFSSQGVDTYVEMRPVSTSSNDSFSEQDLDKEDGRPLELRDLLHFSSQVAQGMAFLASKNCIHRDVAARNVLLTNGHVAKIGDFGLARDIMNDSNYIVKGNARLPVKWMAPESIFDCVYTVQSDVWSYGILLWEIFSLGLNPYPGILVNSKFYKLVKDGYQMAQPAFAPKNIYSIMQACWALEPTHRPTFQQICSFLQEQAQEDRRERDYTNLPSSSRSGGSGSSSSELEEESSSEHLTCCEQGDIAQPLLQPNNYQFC
CDK6/cyclin D1, sequence (Q00534 whole entry): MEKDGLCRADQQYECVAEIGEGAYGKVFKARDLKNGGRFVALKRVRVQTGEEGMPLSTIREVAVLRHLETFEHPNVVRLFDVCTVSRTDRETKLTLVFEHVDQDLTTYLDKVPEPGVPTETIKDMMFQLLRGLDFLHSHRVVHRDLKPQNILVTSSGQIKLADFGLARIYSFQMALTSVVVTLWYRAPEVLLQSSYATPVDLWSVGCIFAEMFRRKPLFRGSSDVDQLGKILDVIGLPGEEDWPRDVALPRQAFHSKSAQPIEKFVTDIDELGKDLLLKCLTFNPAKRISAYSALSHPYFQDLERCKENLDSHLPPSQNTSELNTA
CDK6/cyclin D1, sequence (P24385 whole entry partner): as the sequence (P24385 whole entry partner) above
CDK9/cyclinT1, sequence (P50750 whole entry): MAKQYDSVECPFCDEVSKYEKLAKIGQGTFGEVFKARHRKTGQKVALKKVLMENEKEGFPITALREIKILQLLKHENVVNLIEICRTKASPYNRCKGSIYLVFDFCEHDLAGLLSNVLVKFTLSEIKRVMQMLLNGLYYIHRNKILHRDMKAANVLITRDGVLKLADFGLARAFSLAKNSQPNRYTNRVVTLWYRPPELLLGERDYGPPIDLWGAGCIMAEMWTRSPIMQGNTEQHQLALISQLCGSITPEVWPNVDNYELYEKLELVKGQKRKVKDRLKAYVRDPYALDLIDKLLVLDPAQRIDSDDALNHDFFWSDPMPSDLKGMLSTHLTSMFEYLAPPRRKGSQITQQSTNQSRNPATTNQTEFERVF
CDK9/cyclinT1, sequence (O60563 whole entry partner): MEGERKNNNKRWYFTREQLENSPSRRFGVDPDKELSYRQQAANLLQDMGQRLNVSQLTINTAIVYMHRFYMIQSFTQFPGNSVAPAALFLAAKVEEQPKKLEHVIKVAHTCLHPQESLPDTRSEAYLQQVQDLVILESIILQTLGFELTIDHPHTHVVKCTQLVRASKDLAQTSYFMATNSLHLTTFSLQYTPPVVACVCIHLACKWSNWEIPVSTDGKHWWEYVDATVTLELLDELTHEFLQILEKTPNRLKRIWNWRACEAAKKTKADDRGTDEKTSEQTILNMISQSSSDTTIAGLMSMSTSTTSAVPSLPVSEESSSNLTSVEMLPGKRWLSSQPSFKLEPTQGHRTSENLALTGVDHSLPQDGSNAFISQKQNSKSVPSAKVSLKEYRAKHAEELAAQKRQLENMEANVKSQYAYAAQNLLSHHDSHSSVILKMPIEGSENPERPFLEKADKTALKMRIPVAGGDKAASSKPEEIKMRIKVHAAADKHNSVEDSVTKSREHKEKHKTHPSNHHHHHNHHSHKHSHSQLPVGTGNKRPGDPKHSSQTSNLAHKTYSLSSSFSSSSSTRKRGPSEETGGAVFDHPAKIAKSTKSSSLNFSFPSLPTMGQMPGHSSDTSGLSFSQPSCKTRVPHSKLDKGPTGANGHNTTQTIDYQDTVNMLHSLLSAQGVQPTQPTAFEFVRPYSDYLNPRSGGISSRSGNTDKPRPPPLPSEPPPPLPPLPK

IC50 (ARK 5/NUAK 1): 5 nM
IC50 (CDK1/cyclin B): 515 nM
IC50 (CDK16/cyclin Y): 25 nM
IC50 (CDK17/cyclin Y): 14 nM
IC50 (CDK2/cyclin E): 69 nM
IC50 (CDK4/cyclin D1): 2 nM
IC50 (CDK6/cyclin D1): 0.6 nM
IC50 (CDK7/cyclin H): 3770 nM
IC50 (CDK9/cyclinT1): 48 nM
IC50 (CSF1R): 0.7 nM
IC50 (KIT): 8.5 nM
inhibition profile by KinMap (kinases): wider inhibition profile
Structure (SMILES): CN1CCN(c2ccc(Nc3ncc4cc(C#N)c(=O)n(C5CCCC5)c4n3)cc2)CC1 [Compound 1, 8-cyclopentyl-2-((4-(4-methylpiperazin-1-yl)phenyl)amino)-7-oxo-7,8-dihydropyrido[2,3-d]pyrimidine-6-carbonitrile]
neutropenia [1]: reduced Neutropenia; also recorded: less neutropenia
dose-limiting toxicities ([2]; 200 mg/day cohort, oral, daily in 28-day cycles): No dose-limiting toxicities
severity of adverse events reported ([2]; predominantly gastrointestinal (GI) disorders): Grade 1 or 2
